{"source": "patent US20240398989A1", "about": "“METHODS AND COMPOSITIONS FOR DIAGNOSIS AND TREATMENT OF METABOLIC DISORDERS” (The Broad Institute, Inc., priority 2021, published 2024)", "key": {"[1]": {"conditions": "cited from earlier work"}, "[2]": {"tested_on": "visceral adipocytes", "experiment": "LipocyteProfiler of isoproterenol-treated vs DMSO-treated visceral adipocytes (AMSCs, day 14)", "assay_type": "cell-based, human", "conditions": "for BODIPY-related Granularity (lipid droplet sizes): isoproterenol vs DMSO, across the full granularity size spectra", "protocol": "For imaging, cells were seeded at 10K cells/well in 96-well plates (Cell Carrier, Perkin Elmer #6005550) and induced 4 days after seeding. For RNAseq, cells were seeded at 40K cells/well in 12-well dishes (Corning). […] Adipogenic differentiation was induced by changing culture medium to induction medium. […] Visceral-derived AMSCs were differentiated by further adding 2% FBS as well as 0.1 mM oleic and linoleic acid to the induction and differentiation media. For isoproterenol stimulation experiments, 1 μM isoproterenol was added to the differentiation media and cells treated overnight. Human primary AMSCs and PHH were plated in 96-well CellCarrier plates (Perkinelmer #6005550). AMSCs were differentiated for 14 days and high content imaging was performed at day 0, day 3, day 8 and day 14 of adipogenic differentiation. Primary human hepatocytes were stained after 48 h in culture, and 24h following treatment with oleic acid or metformin. On the respective day of the assay, cell culture media was removed and replaced by 0.5 μM Mitotracker staining solution (1 mM MitoTracker Deep Red stock (Invitrogen #M22426) diluted in culture media) to each well followed by 30 minutes incubation at 37° C.' protected from light. […] PFA was removed and cells were washed once with Hank's Balanced Salt Solution (1×), HBSS (Gibco #14025076). […] Finally, staining solution was removed and cells were washed three times with HBSS. Cells were imaged using a Opera Phenix High content screening system. […] Prior to processing, flat field illumination correction was performed using functions generated from the median intensity across each plate. Nuclei were identified using the DAPI stain and then expanded to identify whole cells using the Phalloidin/WGA and BODIPY stains. Regions of cytoplasm were then determined by removing the Nuclei from the Cell segmentations. Speckles of BODIPY staining were enhanced to assist in detection of small and large individual Lipid objects. For each object set measurements were collected representing size, shape, intensity, granularity, texture, colocalization and distance to neighbouring objects. After LipocyteProfiler (LP) feature extraction data was filtered by applying automated and manual quality control steps. […] Second, every field was assessed visually and fields that were corrupted by experimental induced technical artifacts were removed. Furthermore, blocklisted features (Way, Gregory (2019): Blocklist Features-Cell Profiler. figshare. […] After filtering data were normalised per plate using a robust scaling approach (Pedregosa et al. 2011) that subtracts the median from each variable and divides it by the interquartile range. Individual wells were aggregated for downstream analysis by cell depot and day of differentiation."}, "[3]": {"tested_on": "subcutaneous adipocytes", "experiment": "LipocyteProfiler of isoproterenol-treated vs DMSO-treated subcutaneous adipocytes (AMSCs, day 14)", "assay_type": "cell-based, human", "conditions": "subcutaneous adipocytes/AMSCs at day 14, isoproterenol", "protocol": "For imaging, cells were seeded at 10K cells/well in 96-well plates (Cell Carrier, Perkin Elmer #6005550) and induced 4 days after seeding. For RNAseq, cells were seeded at 40K cells/well in 12-well dishes (Corning). […] Adipogenic differentiation was induced by changing culture medium to induction medium. […] Visceral-derived AMSCs were differentiated by further adding 2% FBS as well as 0.1 mM oleic and linoleic acid to the induction and differentiation media. For isoproterenol stimulation experiments, 1 μM isoproterenol was added to the differentiation media and cells treated overnight. Human primary AMSCs and PHH were plated in 96-well CellCarrier plates (Perkinelmer #6005550). AMSCs were differentiated for 14 days and high content imaging was performed at day 0, day 3, day 8 and day 14 of adipogenic differentiation. Primary human hepatocytes were stained after 48 h in culture, and 24h following treatment with oleic acid or metformin. […] Regions of cytoplasm were then determined by removing the Nuclei from the Cell segmentations. […] Second, every field was assessed visually and fields that were corrupted by experimental induced technical artifacts were removed. […]"}, "[4]": {"tested_on": "primary human hepatocytes (PHH)", "experiment": "LipocyteProfiler of drug-treated primary human hepatocytes", "assay_type": "cell-based", "conditions": "PHH, 24h oleic acid (0.3 mM)", "protocol": "Primary human hepatocytes (PHH) were purchased from BioIVT. Donor lot YNZ was used in this study. PHH were thawed and immediately resuspended in CP media (BioIVT) supplemented with torpedo antibiotic (BioIVT). Cell count and viability were assessed by trypan blue exclusion test prior to plating. […] Four hours after plating, media was replaced with fresh CP media. After 24 h, media was replaced with fresh CP media or CP media containing oleic acid (0.3 mM) or metformin (5 mM). Hepatocytes were incubated for an additional 24 h prior to processing. Human primary AMSCs and PHH were plated in 96-well CellCarrier plates (Perkinelmer #6005550). […] Primary human hepatocytes were stained after 48 h in culture, and 24h following treatment with oleic acid or metformin. On the respective day of the assay, cell culture media was removed and replaced by 0.5 μM Mitotracker staining solution (1 mM MitoTracker Deep Red stock (Invitrogen #M22426) diluted in culture media) to each well followed by 30 minutes incubation at 37° C.' protected from light. […] PFA was removed and cells were washed once with Hank's Balanced Salt Solution (1×), HBSS (Gibco #14025076). […] Finally, staining solution was removed and cells were washed three times with HBSS. Cells were imaged using a Opera Phenix High content screening system. […] Prior to processing, flat field illumination correction was performed using functions generated from the median intensity across each plate. Nuclei were identified using the DAPI stain and then expanded to identify whole cells using the Phalloidin/WGA and BODIPY stains. Regions of cytoplasm were then determined by removing the Nuclei from the Cell segmentations. Speckles of BODIPY staining were enhanced to assist in detection of small and large individual Lipid objects. For each object set measurements were collected representing size, shape, intensity, granularity, texture, colocalization and distance to neighbouring objects. After LipocyteProfiler (LP) feature extraction data was filtered by applying automated and manual quality control steps. […] Second, every field was assessed visually and fields that were corrupted by experimental induced technical artifacts were removed. Furthermore, blocklisted features (Way, Gregory (2019): Blocklist Features-Cell Profiler. figshare. […] After filtering data were normalised per plate using a robust scaling approach (Pedregosa et al. 2011) that subtracts the median from each variable and divides it by the interquartile range. Individual wells were aggregated for downstream analysis by cell depot and day of differentiation."}, "[5]": {"conditions": "1 year follow up clinical trial"}}, "note": "Entries after “also recorded” stand apart in the source; their conditions may differ.", "data": [{"smiles": "CC1(C)CCC(CN2CCN(c3ccc(C(=O)NS(=O)(=O)c4ccc(NCC5CCOCC5)c([N+](=O)[O-])c4)c(Oc4cnc5[nH]ccc5c4)c3)CC2)=C(c2ccc(Cl)cc2)C1", "note": "[venetoclax]", "values": [{"measurement": "hyperglycemia, share of patients", "setting": "[1]; [5]", "result": 16, "unit": "%"}, {"measurement": "severe hyperglycemia, share of patients", "setting": "[1]; [5]", "result": 5, "unit": "%"}, {"measurement": "loss of body weight, share of cases", "setting": "[1]; clinical trial", "result": "11-13%"}]}, {"smiles": "CC(C)NCC(O)c1ccc(O)c(O)c1", "note": "(centres unmarked) [isoproterenol]", "values": [{"measurement": "Mitochondrial Intensity", "setting": "[2]; 24 hour isoproterenol (1 μM) vs DMSO-treated controls, day 14, p=0.0413", "result": "increases"}, {"measurement": "mitochondrial Texture_Entropy", "setting": "[2]; 24 hour isoproterenol vs DMSO-treated controls, p=0.0092", "result": "differences; also recorded: increases"}, {"measurement": "BODIPY Texture Entropy", "setting": "[2]; 24 hour isoproterenol vs DMSO-treated controls, p=0.032", "result": "decrease"}, {"measurement": "BODIPY MedianIntensity", "setting": "[2]; 24 hour isoproterenol vs DMSO-treated controls, p=0.041", "result": "decrease"}, {"measurement": "BODIPY-related Granularity (lipid droplet sizes)", "setting": "[2]", "result": "decreased"}, {"measurement": "BODIPY-related Granularity (lipid droplet sizes)", "setting": "[2]; listed as Isoproterenol", "result": "reduces"}, {"measurement": "effect on morphological profile", "setting": "[3]", "result": "no effect"}]}, {"smiles": "CCCCCCCC/C=C\\CCCCCCCC(=O)O", "note": "[oleic acid]", "values": [{"measurement": "BODIPY Texture_AngularSecondMoment", "setting": "[4]; p 7.21e-07", "result": "differences"}, {"measurement": "lipid droplet number (LargeBODIPYObjects_Count)", "setting": "[4]; p=2.3e-11", "result": "increased"}, {"measurement": "overall lipid content (BODIPY MeanIntensity)", "setting": "[4]; p=1.21e-09", "result": "increased"}, {"measurement": "BODIPY Texture Entropy", "setting": "[4]; p=2.56e-09", "result": "differences"}]}]}
